Measured values: PubChem BioAssay (NCI)
Several values for one entry are separate records, joined by “and”; a condition that tells them apart may be missing. Identical values can stand only once.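 In this assay, cells in 96-well plates receive the compound at five concentrations for 48 hours. Endpoints are linearly interpolated between the surrounding concentrations. GI50 is the concentration that inhibits growth by half. TGI: concentration producing complete growth inhibition.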

How the values were obtained:
Experiment in all cases: DTP human tumour cell line panel, 48 h
MDA-N = test system: MDA-N
DU-145 prostate = test system: DU-145 prostate
MDA-MB-435 = test system: MDA-MB-435
MDA-MB-231 breast = test system: MDA-MB-231 breast
DMS 114 small cell lung = test system: DMS 114 small cell lung
HOP-18 NSCLC = test system: HOP-18 NSCLC
DLD-1 colon = test system: DLD-1 colon
XF 498 CNS = test system: XF 498 CNS

Structure (SMILES) | TGI (MDA-N) [µM] | TGI (DU-145 prostate) [µM] | TGI (MDA-MB-435) | TGI (MDA-MB-231 breast) [µM] | TGI (DMS 114 small cell lung) [µM] | TGI (HOP-18 NSCLC) [µM] | TGI (DLD-1 colon) [µM] | GI50 (DU-145 prostate) | GI50 (MDA-MB-435) [µM] | GI50 (MDA-MB-231 breast) | TGI (XF 498 CNS) [µM] | GI50 (MDA-N) [µM]
Cc1ccc(-c2nnc(-c3ccc4ccccc4c3)o2)cc1 | > 100 | > 100 | > 100 µM | > 100 |  |  |  |  |  |  |  | 
O=C(O)CCSC(=O)Nc1cccc(F)c1 |  |  |  |  | > 100 |  |  |  |  |  |  | 
CCOC(=O)C1=C(C)CC2C(=O)OC(=O)C2C1(C)C (stereo not given) |  |  |  |  | > 100 | > 100 | > 100 |  |  |  |  | 
Cc1cc(=O)n2[nH]c(-c3ccc(C(C)(C)C)cc3)cc2n1 |  | 75.9 | > 100 µM | > 100 |  |  |  | 11.4 µM | 5.44 | 13 µM |  | 
O[C@H]1[C@H]2c3cc4c(cc3CN3CCC(=C[C@@H]1O)[C@H]23)OCO4 | 26.7 |  | 7.87 µM | 10.2 |  |  |  |  |  |  |  | 
Oc1ccc(Cl)cc1-c1cc(-c2ccccc2Cl)[nH]n1 |  | > 100 | > 100 µM | 6.29 |  |  |  | 8.05 µM | 8.44 | 1.44 µM |  | 
COc1ccccc1NC(=O)CC(=O)n1nc(C)c(N=Nc2ccccc2C(=O)O)c1C |  |  |  |  | > 100 |  | > 100 |  |  |  | > 100 | 
COc1cc2nc(C)nc(N[C@H](C)c3cc(N)cc(C(F)(F)F)c3)c2cc1O[C@H]1CCOC1 |  | 30.5 | 30.5 µM | 28.6 |  |  |  | 16.2 µM | 16.8 | 12.1 µM |  | 
CNC(=O)c1ccccc1Nc1nc(Nc2ccc(N3CCOCC3)cc2OC)ncc1Cl |  | > 39.2 | > 66.4 µM | 5.26 |  |  |  | 0.768 µM | 0.629 | 1.09 µM |  | 
Cc1cnc(NC(=O)C(Cc2ccccc2)NC(=O)c2ccccc2)s1 (stereo not given) |  | 47 | 15.6 µM | 27.1 |  |  |  | 21.4 µM | 3.02 | 6.42 µM |  | 
O=C1c2cccnc2-c2nc(-c3ccccc3[N+](=O)[O-])cc3c2c1nc1ccccc13 | 26.1 | 33.3 | 22.2 µM | > 100 |  |  |  | 14.9 µM | 7.1 | 3.89 µM |  | 12.2
Cc1cc(=O)[nH]c2cc3oc4ccccc4c3cc12 | > 100 | > 100 | > 100 µM | > 100 |  |  |  |  |  |  |  | 
O=C(/C=C/c1ccccc1Cl)c1ccc(Cl)c(Cl)c1 |  |  |  |  |  | 32 | 30.1 |  |  |  |  | 
O=C(Nc1ccc(F)cc1F)c1cc(I)ccc1O |  | > 100 | 10.1 µM | 5.8 |  |  |  | 3.87 µM | 3.02 | 1.87 µM |  | 
C=CCc1cc(OC)c2c(c1)C(O)CC(c1ccc(OC)c(OC)c1)O2 (stereo not given) |  |  |  |  | > 100 | > 100 | > 100 |  |  |  |  | 
C=C(CNCCO)[C@@H]1CC[C@]2(CO)CC[C@]3(C)[C@H](CC[C@@H]4[C@@]5(C)CCC(N)C(C)(C)[C@@H]5CC[C@]43C)[C@@H]12 (stereo not given in full) |  | 16.6 | 3.3 µM | 3.14 |  |  |  | 5.1 µM | 1.72 | 1.52 µM |  | 
COC(=O)[C@@H](C)C[C@H](Cc1ccc(F)cc1)NC(=O)c1csc([C@@H](C[C@H](C(C)C)N(C)C(=O)[C@@H](NC(=O)[C@H]2CCCCN2C)C(C)C)OC(C)=O)n1 |  | 0.0214 | 0.00047 µM and 0.00417 µM |  |  |  |  | 0.000984 µM and 0.00525 µM |  | 0.0023 µM and 0.0158 µM |  | 

Structure (SMILES) | TGI (MDA-N) [µM] | TGI (DU-145 prostate) [µM] | TGI (MDA-MB-435) | TGI (MDA-MB-231 breast) [µM] | TGI (DMS 114 small cell lung) [µM] | TGI (HOP-18 NSCLC) [µM] | TGI (DLD-1 colon) [µM] | GI50 (DU-145 prostate) | GI50 (MDA-MB-435) [µM] | GI50 (MDA-MB-231 breast) | TGI (XF 498 CNS) [µM] | GI50 (MDA-N) [µM]
COc1ccc(NC(=O)c2cc(OC)cc(OC)c2)cc1 |  |  |  |  | > 100 | > 100 | > 100 |  |  |  | > 100 | 
COc1cc(/C=C/c2cc(/C=C/c3ccc(O)c(OC)c3)n(C(=O)Nc3ccc(F)cc3)n2)ccc1O |  | 11.4 | 0.561 µM | > 65.3 |  |  |  | 1.53 µM | 0.214 | 2.16 µM |  | 
NC1CCC(Nc2nc(NCc3ccc(-c4ccco4)nc3)c3ncn(C4CCCC4)c3n2)CC1 (stereo not given) |  | 12.2 | 1.24 µM |  |  |  |  | 0.0426 µM | 0.0225 | 0.0137 µM |  | 
O=C(Nc1ccc(I)cc1)c1cc([N+](=O)[O-])ccc1O |  | > 100 | > 100 µM | 53.1 |  |  |  | 17 µM | 6.91 | 10 µM |  | 
COC(=O)Nc1nc2ccc(S(=O)c3ccccc3)cc2[nH]1 (stereo not given) |  | > 100 | 3.94 µM | > 100 |  |  |  | 31 µM | 1.26 | 7.45 µM |  | 
COc1ccc(-c2cc(=O)c3ccc(O)cc3o2)c(OC)c1OC |  |  |  |  | > 100 |  | > 100 |  |  |  | > 100 | 
CCOc1ccccc1-n1c(CN2CCN(C(=O)COc3ccc(CNCCCCCCN4C5CCCC4CC(OC(=O)Nc4cc(C)ccc4OC)C5)cc3)CC2)nc2ccccc2c1=O (stereo not given) |  | 3.49 | 2.12 µM | 2.13 |  |  |  | 1.8 µM | 0.811 | 0.815 µM |  | 
NC(CSC(c1ccccc1)(c1ccccc1)c1ccc2c(c1)OCO2)C(=O)O (stereo not given) |  | 6.88 |  | 14.4 |  |  |  | 2.33 µM |  | 0.365 µM |  | 
c1cc2c(cc1NC1=NCCO1)CCC2 | > 10 |  | > 10 µM |  |  |  |  |  |  |  |  | 
CCCCCCCCSC1=CC(=O)c2nc3ccccc3c3ccnc1c23 |  | > 100 | > 100 µM | > 100 |  |  |  | > 100 µM | 41.7 | 5.94 µM |  | 
CC(=O)OC(C)C(=O)C1c2cccc(O)c2C(=O)c2c(O)cc(C)cc21 (stereo not given) |  |  |  |  | 0.497 |  | 3.22 |  |  |  | 0.465 | 
COc1ccc(-c2cc(-c3ccc(Nc4nc(Nc5ccccc5)nc(Nc5ccc(Cl)cc5)n4)cc3)nc(N)c2C#N)cc1 |  | > 50 | 2.16 µM | 2.46 |  |  |  | 2.41 µM | 0.962 | 1.01 µM |  | 
O=[N+]([O-])c1cnc(Sc2ccncn2)s1 |  | 3.22 | 8.76 µM | 15.1 |  |  |  | 1.8 µM | 2.95 | 3.98 µM |  | 
COc1ccc(C2=CSc3cc(Cl)c(C)cc3S(=O)(=O)N2C(C)=O)cc1 |  | > 100 | 87.8 µM | 37.9 |  |  |  | 38.4 µM | 28.6 | 14.5 µM |  | 
O=C(O)C(Cc1ccccc1)N1C(=O)N/C(=C\c2ccc(F)cc2)C1=O (stereo not given) |  |  |  |  |  | > 100 | > 100 |  |  |  |  | 
COc1ccc(-n2/c(=N/C(=S)N(C)C)ss/c2=N\C(=S)N(C)C)cc1 |  |  |  |  | > 100 |  |  |  |  |  |  | 
COc1cc2nc(-c3ccc(C(F)(F)F)cc3)cc(OCCCN3CCC(O)CC3)c2cc1OC |  | 20.4 | 9.31 µM | 15.6 |  |  |  | 4.96 µM | 2.76 | 0.919 µM |  | 
